{
  "source": "patent US4337760A",
  "about": "“Method for the treatment of tumors with β-glucuronidase activity dependent pharmaceuticals” (Schwimmer; Adolf, priority 1979, dated 1982)",
  "key": {"β-glucuronidase [1]": {"tested_on": "β-glucuronidase", "test": "Incubation with β-glucuronidase", "assay_type": "biochemical", "procedure": "The free acid form of the compound was formed by treating the 2,4-dinitrophenyl-methyl(tri-O-acetyl-β-D-glucopyranosyl bromide)-uronate with a one-half molar amount of barium hydroxide to produce the barium salt. This barium salt of the glucuronide precipitates as a white amorphous material. An equimolar solution of H2 SO4 releases the free glucuronide. Distillation of the supernatant yielded bright yellow-brown crystals having a melting point of 179°-180° C."}, "[2]": {"details": "alkaline vs acid pH; cited from earlier work"}, "β-glucuronidase [3]": {"tested_on": "β-glucuronidase", "details": "cited from earlier work"}, "[4]": {"test": "Acute intravenous toxicity to rabbits, range finding screen", "assay_type": "in vivo, NZW rabbits", "details": "i.v.; for Mortality ratio: 14 day observation", "procedure": "(§1) NZW rabbits in the weight range of 2,000 to 3,200 g for females and 2,200 to 3,800 g for males were injected intravenously with mandelonitrile β-D-glucuronic acid solution. Rabbits injected with saline alone served as the control. The mandelonitrile β-D-glucuronic acid solution contained 10% mandelonitrile.\n(§2) During the 14 day observation period a record was kept of all mortalities and signs of toxicity."}, "[5]": {"test": "Acute intravenous toxicity to rabbits, full scale test", "assay_type": "in vivo, NZW rabbits", "details": "for acute median lethal intravenous dose (LD 50): 10% solution, 95% confidence limits, method of Weil", "procedure": "as §1, §2\nDosing was then extended to larger groups of rabbits (5 males and 5 females per group) in order to locate the median lethal dose more precisely.\nAll the deaths of all the groups occurred within 3 hours after dosing.\nThe acute median lethal intravenous dose (LD 50) and its 95% confidence limints calculated by the method of Weil, C. S., 1952, Biometrics, 8:249, to rabbits of mandelonitrile-β-D-glucuronic acid 10% solution are calculated to be: […]"}, "trophoblastic cells": {"tested_on": "trophoblastic cells", "details": "reported; cited from earlier work"}, "[6]": {"details": "in vivo; cited from earlier work"}},
  "data": [
    {"molecule": "O=C(O)[C@H]1O[C@@H](Oc2ccc([N+](=O)[O-])cc2[N+](=O)[O-])[C@H](O)[C@@H](O)[C@@H]1O", "note": "[2,4-dinitrophenol-β-D-glucuronic acid]", "values": [
      {"measurement": "product on incubation with β-glucuronidase", "setting": "β-glucuronidase [1]", "value": "produced 2,4-dinitrophenol"}
    ]},
    {"molecule": "Cc1cc(O)cc(C)c1Cl", "note": "[4-chloro-3,5-xylanol]", "values": [
      {"measurement": "pH-dependent solubility", "setting": "[2]", "value": "water soluble at alkaline pH's and lipid-soluble at acid pH's"}
    ]},
    {"molecule": "Oc1c(I)cc(Cl)c2cccnc12", "note": "[5-chloro-7-iodo-8-quinolinol]", "values": [
      {"measurement": "pH-dependent solubility", "setting": "[2]", "value": "water soluble at alkaline pH's and lipid-soluble at acid pH's"}
    ]},
    {"molecule": "N#C[C@H](O[C@@H]1O[C@H](CO[C@@H]2O[C@H](CO)[C@@H](O)[C@H](O)[C@H]2O)[C@@H](O)[C@H](O)[C@H]1O)c1ccccc1", "note": "[amygdalin]", "values": [
      {"measurement": "splitting by the enzyme β-glucuronidase", "setting": "β-glucuronidase [3]", "value": "cannot be split"}
    ]},
    {"molecule": "N#CC(O[C@@H]1O[C@H](C(=O)O)[C@@H](O)[C@H](O)[C@H]1O)c1ccccc1", "note": "(stereo partly drawn) [mandelonitrile β-D-glucuronic acid, Mandelonitrile β-D-glucuronic acid]", "values": [
      {"measurement": "Mortality ratio", "setting": "[4]; 0.25 ml/kg", "value": "0/2"},
      {"measurement": "Mortality ratio", "setting": "[4]; 0.5 ml/kg", "value": "1/2"},
      {"measurement": "Mortality ratio", "setting": "[4]; 1.0 ml/kg", "value": "2/2"},
      {"measurement": "Mortality ratio", "setting": "[4]; 2.0 ml/kg", "value": "2/2"},
      {"measurement": "Mortality ratio", "setting": "[4]; 4.0 ml/kg", "value": "2/2"},
      {"measurement": "median lethal intravenous dose (LD-50)", "setting": "[4]; rabbits, preliminary range finding", "value": "0.23-2 ml per kg body weight"},
      {"measurement": "Time of all the deaths of all the groups after dosing", "setting": "[5]; all groups, i.v.", "value": "≤ 3", "unit": "h"},
      {"measurement": "maximum safe dose", "setting": "[5]; believed, from the rabbit data", "value": "~0.44", "unit": "ml/kg body weight"},
      {"measurement": "acute median lethal intravenous dose (LD 50)", "setting": "[5]; females", "value": "0.6873 (0.6442-0.7304) ml/kg body weight"},
      {"measurement": "Mortality ratio", "setting": "[5]; females, i.v., 0.44 ml/kg", "value": "0/5"},
      {"measurement": "Mortality ratio", "setting": "[5]; females, i.v., 0.66 ml/kg", "value": "2/5"},
      {"measurement": "Time of death after dosing: No of hours", "setting": "[5]; females, i.v., 0.66 ml/kg", "value": "< 3", "unit": "h"},
      {"measurement": "Time of death after dosing: No. of animals", "setting": "[5]; females, i.v., 0.66 ml/kg", "value": 2, "unit": "animals"},
      {"measurement": "Mortality ratio", "setting": "[5]; females, i.v., 1.0 ml/kg", "value": "5/5"},
      {"measurement": "Time of death after dosing: No of hours", "setting": "[5]; females, i.v., 1.0 ml/kg", "value": "< 3", "unit": "h"},
      {"measurement": "Time of death after dosing: No. of animals", "setting": "[5]; females, i.v., 1.0 ml/kg", "value": 5, "unit": "animals"},
      {"measurement": "Mortality ratio", "setting": "[5]; females, i.v., 1.5 ml/kg", "value": "5/5"},
      {"measurement": "Time of death after dosing: No of hours", "setting": "[5]; females, i.v., 1.5 ml/kg", "value": "< 3", "unit": "h"},
      {"measurement": "Time of death after dosing: No. of animals", "setting": "[5]; females, i.v., 1.5 ml/kg", "value": 5, "unit": "animals"},
      {"measurement": "Mortality ratio", "setting": "[5]; females, i.v., 2.25 ml/kg", "value": "5/5"},
      {"measurement": "Time of death after dosing: No of hours", "setting": "[5]; females, i.v., 2.25 ml/kg", "value": "< 3", "unit": "h"},
      {"measurement": "Time of death after dosing: No. of animals", "setting": "[5]; females, i.v., 2.25 ml/kg", "value": 5, "unit": "animals"},
      {"measurement": "Clinical symptoms of surviving animals", "setting": "[5]; following 14 days", "value": "did not show any clinical symptoms"},
      {"measurement": "Autopsy of all animals", "setting": "[5]; gross pathology", "value": "did not show clear gross pathological changes"},
      {"measurement": "acute median lethal intravenous dose (LD 50)", "setting": "[5]; males", "value": "0.8419 (0.7809-0.9029) ml/kg body weight"},
      {"measurement": "Mortality ratio", "setting": "[5]; males, i.v., 0.44 ml/kg", "value": "0/5"},
      {"measurement": "Mortality ratio", "setting": "[5]; males, i.v., 0.66 ml/kg", "value": "2/5"},
      {"measurement": "Time of death after dosing: No of hours", "setting": "[5]; males, i.v., 0.66 ml/kg", "value": "< 3", "unit": "h"},
      {"measurement": "Time of death after dosing: No. of animals", "setting": "[5]; males, i.v., 0.66 ml/kg", "value": 2, "unit": "animals"},
      {"measurement": "Mortality ratio", "setting": "[5]; males, i.v., 1.0 ml/kg", "value": "3/5"},
      {"measurement": "Time of death after dosing: No of hours", "setting": "[5]; males, i.v., 1.0 ml/kg", "value": "< 3", "unit": "h"},
      {"measurement": "Time of death after dosing: No. of animals", "setting": "[5]; males, i.v., 1.0 ml/kg", "value": 3, "unit": "animals"},
      {"measurement": "Mortality ratio", "setting": "[5]; males, i.v., 1.5 ml/kg", "value": "4/5"},
      {"measurement": "Time of death after dosing: No of hours", "setting": "[5]; males, i.v., 1.5 ml/kg", "value": "< 3", "unit": "h"},
      {"measurement": "Time of death after dosing: No. of animals", "setting": "[5]; males, i.v., 1.5 ml/kg", "value": 4, "unit": "animals"},
      {"measurement": "Mortality ratio", "setting": "[5]; males, i.v., 2.25 ml/kg", "value": "5/5"},
      {"measurement": "Time of death after dosing: No of hours", "setting": "[5]; males, i.v., 2.25 ml/kg", "value": "< 3", "unit": "h"},
      {"measurement": "Time of death after dosing: No. of animals", "setting": "[5]; males, i.v., 2.25 ml/kg", "value": 5, "unit": "animals"},
      {"measurement": "Signs of reaction to treatment", "setting": "[5]; observed 2 minutes after dosing, i.v.", "value": "ataxia and paralysis"},
      {"measurement": "Early deaths", "setting": "[5]; two minutes after the signs of reaction, high dose group", "value": "a few animals of the high dose group died"}
    ]},
    {"molecule": "C[C@]12CC[C@H]3[C@@H](CCC4=CC(=O)CC[C@@]43C)[C@@H]1CC[C@@H]2O", "note": "[testosterone]", "values": [
      {"measurement": "β-glucuronidase activity in trophoblastic cells", "setting": "trophoblastic cells", "value": "induce β-glucuronidase activity"}
    ]},
    {"molecule": "Neomycin", "values": [
      {"measurement": "known adverse effect", "setting": "[6]", "value": "cannot be administered internally because of its toxicity"}
    ]}
  ]
}
